From patent US20230406906A1, “SERPIN PEPTIDES AND METHODS OF USING THE SAME” (SERPIN PHARMA, LLC, priority 2022, published 2023)

What was measured:
STAT6 = assay: IL-13 stimulated STAT6 phosphorylation in esophageal EPC2 cells (western blot); assay type: cell-based, Human; conditions: 30 minutes post IL-13 induction
Method: Esophageal EPC2 cells were treated with vehicle (ddw), A1AT or SP163M. Cells were collected at time-points indicated and western blot analysis of phospho-specific STAT6 was analyzed. […] Using CRISPER/CAS9 technology, an LRP1 knockout esophageal EPC2 cell line was created.

C57BL/6J mice = assay: Intraplantar capsaicin model of acute nociception; assay type: in vivo; conditions: male mice, 2 μg/g 1 h before capsaicin, 10 min
Method: For the capsaicin studies, male (n=41) and female (n=37) mice were acclimated to the behavior testing facility for at least 1 h. Capsaicin was dissolved in 20% (2-hydroxypropyl)-β-cyclodextrin (Sigma-Aldrich, St. Louis, MO, USA) solution. […] Subsequently, 10 μl of 2 μg/μl capsaicin solution was injected into the plantar area of left hind paw. Immediately after capsaicin injection, mice were placed in a plexiglass box. Two observers, blinded to treatments, recorded the time spent licking and flinching the left hind paw over 10 min.

LRP1 = molecular target: T1, LRP1 (Rattus norvegicus, UniProt G3V928); assay: Cell signaling analysis in PC12 cells (phospho-ERK1/2, phospho-Akt immunoblot); assay type: cell-based
T1 construct: host or cells: rat PC12 cells
Method: Cell signaling analysis: Rat PC12 cells were purchased from ATCC (CRL-1721). PC12 cells were maintained in high glucose DMEM (Gibco, USA) containing 10% heat-inactivated FBS (Gibco, USA), 5% HyClone heat-inactivated horse serum (Cytiva, USA), penicillin (100 units/ml) and streptomycin ([…]) in 6-well plates that were pre-coated with 0.01 mg/ml type IV collagen (Sigma-Aldrich, St. Louis, MO, USA). Cells were transferred to serum-free medium (SFM) 4 h prior to adding effectors, and then treated with SP163M (2.4, 24 or 240 nM); EI-tPA (12 nM), NGF (0.36 nM), or vehicle (PBS) for 10 min. In some cases, cells were pre-incubated with the competitive antagonist of LRP1, GST-RAP (150 nM) for 15 min or electroporated using the Rat Neuron Nucleofector Amaxa Kit (Lonza Biosciences) and incubated with siRNA to silence LRP1 expression (siLRP1; M-094191-01-0010, Dharmacon) for 48 h. Control cells were transfected with non-targeting control (NTC) siRNA (NTC; D-001810-10-05, Dharmacon). Cells were rinsed with ice-cold PBS and proteins were extracted in RIPA buffer (20 mM sodium phosphate, 150 mM NaCl, pH 7.4, 1% Triton X-100, 0.5% sodium deoxycholate, 0.1% SDS) supplemented with protease and phosphatase inhibitors (Roche Diagnostics, USA). After 30 min on ice, lysates were centrifuged at 15000×g for 5 min, supernatant collected and stored at −20° C. Equal amounts of protein from cell lysates (20 μg), as determined by BCA Protein Assay (ThermoFisher Scientific, Waltham, MA, USA), were subjected to 10% SDS-PAGE and electro-transferred to nitrocellulose membranes. The membranes were blocked with 5% nonfat dried milk and then incubated with primary anti-phospho-AKT (Cell Signaling Technology, Danvers, MA, USA; cat #9271S; 1:1000), anti-phospho-ERK1/2 (Cell Signaling Technology, Danvers, MA, USA; cat #9101S; 1:1000), anti-LRP1 (Cell Signaling Technology, Danvers, MA, USA; cat #64099S; 1:1000) or anti total-ERK1/2 (Cell Signaling Technology, Danvers, MA, USA; cat #91012S; 1:1000). Immunoblots were developed using Radiance, Radiance Q, and Radiance Plus chemiluminescent substrates and imaged using a BioRad ChemiDoc Imaging System (Bio-Rad, Hercules, CA, USA).

NFκB [1] = assay: NFκB reporter assay (THP1-XBlue-MD2-CD14 cells, LPS, SEAP read-out); assay type: cell-based; conditions: peptide 50 μg/ml before LPS 5 ng/ml, overnight
Method: The reporter cells (THP1-XBlue-MD2-CD14 cells) were treated with each peptide (50 μg/ml) before being insulted with LPS (5 ng/ml) and incubated overnight. The NFκB inducible Secreted Embryonic Alkaline Phosphatase (SEAP) was measured in the supernatant and read for absorbance.

[2] = molecular target: LRP1 (low-density lipoprotein receptor-related protein 1) on rat PC12 cells (rat) (UniProt G3V928); assay: cell-based or functional assay
NFκB [3] = assay: NFκB reporter assay (THP1-XBlue-MD2-CD14 cells, LPS, SEAP read-out); assay type: cell-based; conditions: without LPS
mice [4] = assay: MC903 AD-like inflammatory skin model, topical treatment (dermatitis score, ear volume, scratching); assay type: in vivo
Method: SP16 (in 70% ethanol) was applied topically to the ears on the days of the MC903 applications (MC903+SP16). Drug vehicle (70% EtOH) was applied to control animals (MC903) and normal control animals (NC) received EtOH in place of MC903. In-life parameters: Dermatitis score (FIG. 16A) and ear volume (FIG. 16B) measured on days 0, 3, 7, 9, 11 and 14. […] Clinical Dermatitis Score (score 0-4 for each parameter)—erythema, scale/dryness, edema, excoriation/erosion (total score 0-16).
(§1) Mice were treated with SP16 in 70% EtOH (MC903+SP16) or drug vehicle (MC903). Normal control (NC) mice were treated with EtOH only. Ears were measured for PAR2 protein expression through western blot analysis (quantitative analysis after normalization to beta-actin shown) (n=3-5). TSLP was measured in both the ears and serum by ELISA (N=3-5). Scratching was assessed over a 3 minute period after a 5-minute acclimatization period and the number of scratches are shown (n=3). IL-4 was measured in ear lysate via ELISA (N=3-5).

mice [5] = assay: OVA-induced allergic inflammation model, eosinophils in BALF by flow cytometry; assay type: in vivo
Method: FIG. 15A: mice were subjected to the OVA-challenge allergic inflammation model and treated with vehicle, SP16, or A1AT during the challenge phase. The BALF was collected and analyzed for the percent of eosinophils and compared to saline (non-challenged) mice, vehicle OVA induced mice, or SP16 treated OVA induced mice.
The impact of SP16 treatment on eosinophilic infiltration in mice was assessed using the OVA-induced allergic inflammation model. The number of eosinophils in the bronchoalveolar lavage fluid was quantified by flow cytometry.

CCL24 = assay: OVA-challenge allergic inflammation model, BALF CCL24 via ELISA; assay type: in vivo; conditions: treated during OVA challenge phase, sensitized mice
Method: (§2) Mice were subjected to the OVA-challenge allergic inflammation model and treated with vehicle or SP16 during the challenge phase. The bronchoalveolar lavage fluid (BALF) was analyzed for cytokines via ELISA.

CCL26 = CCL26 release by esophageal epithelial cells (EPC2); assay type: cell-based, Human
TSLP [6] = assay: Poly I:C-induced TSLP production by SPINK7 knockout EPC2 cells (ELISA); assay type: cell-based, Human; conditions: SPINK7 knockout esophageal cells, Poly I:C 5 μg/ml, 8 hours
Method: FIG. 12A: Poly I:C-induced TSLP production by SPINK7 knockout EPC2 cells (Human esophageal epithelial cells). SPINK7 KO cells and control cells were plated in high calcium and high density, for 48 hours before being treated with SP16 or 7G and Poly I:C (5 μg/ml, or untreated) for 8 hours. TSLP production in the supernatant was measured by ELISA. FIG. 12B: primary esophageal epithelial cells (EPC2) were treated with SP16 and then stimulated with IL-13, a TH2 response mediated cytokine, to induce CCL26.
SP16 reduces several key cytokines involved in allergic responses. Upon knockout of SPINK7, esophageal epithelial cells release exacerbated levels of TSLP. TSLP is a key mediator of immune cell responses upon activation to an insult such as allergens.

TSLP [7] = assay: MC903 AD model, TSLP in ears and serum by ELISA; assay type: in vivo; conditions: topical, vs MC903 treated mice
Method: as §1

PAR2 = assay: MC903 AD model, PAR2 protein expression in ears (western blot); assay type: in vivo, mice; conditions: topical, normalized to beta-actin
Method: as §1

IL-4 = assay: MC903 AD model, IL-4 in ear lysate via ELISA; assay type: in vivo, mice; conditions: topical
Method: as §1

IL-2 = assay: OVA-challenge allergic inflammation model, BALF IL-2 via ELISA; assay type: in vivo; conditions: treated during OVA challenge phase, sensitized mice
Method: as §2

IL-1a = assay: OVA-challenge allergic inflammation model, BALF IL-1a via ELISA; assay type: in vivo; conditions: treated during OVA challenge phase, sensitized mice
Method: as §2

T1 sequence (G3V928 20-3944 limits assumed): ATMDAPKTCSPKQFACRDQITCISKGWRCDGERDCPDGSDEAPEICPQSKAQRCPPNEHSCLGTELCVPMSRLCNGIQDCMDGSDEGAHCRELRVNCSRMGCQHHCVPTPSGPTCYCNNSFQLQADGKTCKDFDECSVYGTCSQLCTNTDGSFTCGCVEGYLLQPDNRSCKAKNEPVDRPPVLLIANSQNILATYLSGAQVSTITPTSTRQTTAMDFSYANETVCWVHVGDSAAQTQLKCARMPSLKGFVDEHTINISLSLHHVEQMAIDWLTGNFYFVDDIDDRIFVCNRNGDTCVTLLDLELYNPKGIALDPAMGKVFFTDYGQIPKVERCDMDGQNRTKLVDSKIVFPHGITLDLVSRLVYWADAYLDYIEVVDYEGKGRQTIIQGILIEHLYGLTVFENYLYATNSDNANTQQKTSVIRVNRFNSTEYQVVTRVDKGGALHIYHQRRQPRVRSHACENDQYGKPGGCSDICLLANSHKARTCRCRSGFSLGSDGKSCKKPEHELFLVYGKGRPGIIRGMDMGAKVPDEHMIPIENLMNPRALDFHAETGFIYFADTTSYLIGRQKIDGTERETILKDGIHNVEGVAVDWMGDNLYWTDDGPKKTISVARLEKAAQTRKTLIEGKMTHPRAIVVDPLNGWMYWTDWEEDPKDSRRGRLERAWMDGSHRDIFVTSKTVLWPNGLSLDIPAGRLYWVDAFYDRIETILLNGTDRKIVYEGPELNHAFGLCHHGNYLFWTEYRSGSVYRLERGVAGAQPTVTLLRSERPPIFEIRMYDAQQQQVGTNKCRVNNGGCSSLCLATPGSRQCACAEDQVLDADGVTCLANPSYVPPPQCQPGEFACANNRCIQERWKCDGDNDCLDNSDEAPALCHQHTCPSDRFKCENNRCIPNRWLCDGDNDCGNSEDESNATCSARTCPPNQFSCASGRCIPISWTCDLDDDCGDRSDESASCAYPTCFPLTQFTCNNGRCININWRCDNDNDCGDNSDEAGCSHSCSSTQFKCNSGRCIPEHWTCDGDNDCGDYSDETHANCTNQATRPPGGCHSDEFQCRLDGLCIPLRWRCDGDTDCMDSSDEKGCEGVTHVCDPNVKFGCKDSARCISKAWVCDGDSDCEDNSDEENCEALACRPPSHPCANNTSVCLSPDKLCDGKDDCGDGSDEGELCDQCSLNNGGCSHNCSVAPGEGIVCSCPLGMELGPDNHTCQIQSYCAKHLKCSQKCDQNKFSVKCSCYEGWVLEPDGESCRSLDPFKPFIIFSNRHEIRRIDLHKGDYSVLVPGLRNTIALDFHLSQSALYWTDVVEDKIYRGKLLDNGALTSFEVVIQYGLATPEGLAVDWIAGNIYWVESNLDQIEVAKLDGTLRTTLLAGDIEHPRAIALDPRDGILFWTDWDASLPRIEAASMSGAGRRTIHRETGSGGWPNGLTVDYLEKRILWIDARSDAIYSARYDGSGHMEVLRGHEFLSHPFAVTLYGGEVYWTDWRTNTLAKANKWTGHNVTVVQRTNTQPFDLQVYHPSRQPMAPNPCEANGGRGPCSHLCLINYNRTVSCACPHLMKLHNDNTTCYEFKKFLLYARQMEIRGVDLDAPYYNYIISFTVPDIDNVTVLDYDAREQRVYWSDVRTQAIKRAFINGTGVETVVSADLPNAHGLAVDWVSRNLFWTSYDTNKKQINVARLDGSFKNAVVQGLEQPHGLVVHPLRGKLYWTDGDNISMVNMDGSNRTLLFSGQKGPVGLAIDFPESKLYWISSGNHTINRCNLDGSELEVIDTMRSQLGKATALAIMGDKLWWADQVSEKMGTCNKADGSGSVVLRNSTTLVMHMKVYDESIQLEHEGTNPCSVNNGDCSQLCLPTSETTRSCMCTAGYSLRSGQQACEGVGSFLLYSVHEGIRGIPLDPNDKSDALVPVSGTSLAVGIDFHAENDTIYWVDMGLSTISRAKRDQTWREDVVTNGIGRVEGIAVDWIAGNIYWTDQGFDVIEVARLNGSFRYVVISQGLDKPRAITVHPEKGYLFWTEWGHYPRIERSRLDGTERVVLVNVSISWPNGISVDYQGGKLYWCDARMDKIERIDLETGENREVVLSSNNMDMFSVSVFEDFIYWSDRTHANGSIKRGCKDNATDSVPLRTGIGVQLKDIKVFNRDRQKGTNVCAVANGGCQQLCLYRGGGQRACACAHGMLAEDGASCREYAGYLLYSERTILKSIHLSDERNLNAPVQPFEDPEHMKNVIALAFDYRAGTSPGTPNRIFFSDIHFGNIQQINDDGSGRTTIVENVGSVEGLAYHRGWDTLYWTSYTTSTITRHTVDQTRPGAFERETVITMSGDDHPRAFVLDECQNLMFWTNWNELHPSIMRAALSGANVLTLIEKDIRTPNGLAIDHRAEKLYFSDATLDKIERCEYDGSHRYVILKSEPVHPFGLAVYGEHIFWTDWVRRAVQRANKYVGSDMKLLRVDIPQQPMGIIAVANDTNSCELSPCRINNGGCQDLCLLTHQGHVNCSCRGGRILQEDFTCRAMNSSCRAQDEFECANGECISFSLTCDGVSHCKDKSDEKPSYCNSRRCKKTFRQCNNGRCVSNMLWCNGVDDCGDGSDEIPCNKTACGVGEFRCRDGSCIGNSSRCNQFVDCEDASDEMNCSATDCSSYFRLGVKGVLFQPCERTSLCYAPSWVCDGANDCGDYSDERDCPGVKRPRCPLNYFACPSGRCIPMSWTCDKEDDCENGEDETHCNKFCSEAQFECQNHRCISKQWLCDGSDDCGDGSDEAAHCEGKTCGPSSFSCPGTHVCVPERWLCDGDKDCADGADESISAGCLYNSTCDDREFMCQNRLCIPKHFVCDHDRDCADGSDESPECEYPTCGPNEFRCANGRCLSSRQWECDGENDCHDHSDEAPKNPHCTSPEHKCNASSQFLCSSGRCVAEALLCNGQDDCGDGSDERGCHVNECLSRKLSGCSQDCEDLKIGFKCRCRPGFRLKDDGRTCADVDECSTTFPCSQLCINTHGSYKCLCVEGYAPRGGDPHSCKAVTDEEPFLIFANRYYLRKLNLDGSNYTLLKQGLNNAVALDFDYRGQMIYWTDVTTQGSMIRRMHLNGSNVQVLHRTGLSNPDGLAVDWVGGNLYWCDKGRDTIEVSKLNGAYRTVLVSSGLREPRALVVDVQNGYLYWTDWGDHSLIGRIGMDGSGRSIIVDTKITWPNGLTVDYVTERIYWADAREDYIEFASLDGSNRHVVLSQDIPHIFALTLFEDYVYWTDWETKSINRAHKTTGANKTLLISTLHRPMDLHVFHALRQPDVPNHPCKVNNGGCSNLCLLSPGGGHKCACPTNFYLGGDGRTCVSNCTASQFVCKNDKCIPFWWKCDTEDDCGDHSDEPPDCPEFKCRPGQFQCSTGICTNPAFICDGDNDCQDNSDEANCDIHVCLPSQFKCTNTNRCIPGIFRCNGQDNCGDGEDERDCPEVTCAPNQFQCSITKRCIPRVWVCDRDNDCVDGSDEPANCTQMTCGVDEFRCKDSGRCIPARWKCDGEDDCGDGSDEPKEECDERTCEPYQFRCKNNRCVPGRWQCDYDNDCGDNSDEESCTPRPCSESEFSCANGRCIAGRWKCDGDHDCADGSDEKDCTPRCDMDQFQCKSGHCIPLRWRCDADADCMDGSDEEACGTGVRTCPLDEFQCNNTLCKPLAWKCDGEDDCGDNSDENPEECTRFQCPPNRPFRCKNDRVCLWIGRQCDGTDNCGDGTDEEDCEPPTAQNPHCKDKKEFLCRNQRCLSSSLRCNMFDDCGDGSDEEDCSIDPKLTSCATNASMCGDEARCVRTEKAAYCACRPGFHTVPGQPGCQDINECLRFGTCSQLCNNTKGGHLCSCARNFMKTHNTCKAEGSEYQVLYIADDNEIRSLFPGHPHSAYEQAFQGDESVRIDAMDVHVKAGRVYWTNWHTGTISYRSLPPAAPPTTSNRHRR
T1 sequence (G3V928 3945-4545 partner limits assumed): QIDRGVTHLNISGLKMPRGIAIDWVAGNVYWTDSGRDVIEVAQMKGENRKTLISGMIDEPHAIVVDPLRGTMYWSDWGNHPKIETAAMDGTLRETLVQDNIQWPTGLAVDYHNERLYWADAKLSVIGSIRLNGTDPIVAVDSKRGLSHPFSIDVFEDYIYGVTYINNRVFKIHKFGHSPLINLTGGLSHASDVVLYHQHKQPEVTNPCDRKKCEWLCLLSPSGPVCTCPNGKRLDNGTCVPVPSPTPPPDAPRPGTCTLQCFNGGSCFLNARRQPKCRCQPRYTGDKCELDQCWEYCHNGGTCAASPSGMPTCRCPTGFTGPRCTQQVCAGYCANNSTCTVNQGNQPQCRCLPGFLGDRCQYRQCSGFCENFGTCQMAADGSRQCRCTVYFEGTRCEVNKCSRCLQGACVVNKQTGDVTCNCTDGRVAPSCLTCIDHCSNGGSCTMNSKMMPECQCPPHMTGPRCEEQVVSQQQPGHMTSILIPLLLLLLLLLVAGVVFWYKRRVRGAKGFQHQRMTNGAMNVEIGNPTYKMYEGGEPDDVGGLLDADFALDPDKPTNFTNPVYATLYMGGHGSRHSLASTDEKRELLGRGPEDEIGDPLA

## A1AT: alpha-1 antitrypsin, the prototypical SERPIN
STAT6
  STAT6 phosphorylation: STAT6 was phosphorylated in vehicle and A1AT treated cells

## EI-tPA: Recombinant human EI-tPA, derivative of tissue-type plasminogen activator, known LRP1 agonist [reference compound]
C57BL/6J mice
  capsaicin induced acute pain-related behavior (time spent licking): blocked the capsaicin induced acute pain-related behavior
LRP1; 48 h after transfection
  activation of ERK1/2 in cells transfected with LRP1-specific siRNA: ERK1/2 was not activated
  activation of ERK1/2 in cells transfected with NTC siRNA: also robustly activated ERK1/2

## FPKMVPQFNTELKIFPEVNIK (FPKMVPQFNTELKIFPEVNIK) [SP34, reference compound]
NFκB [1]
  NFκB activity (NFκB inducible SEAP in supernatant): neither the scrambled core control peptide nor the AAT 0-36 fragment decreased the NFκB activity

## NGF: NGF-β purchased from Sigma, cell signaling control [reference compound]
LRP1; 0.36 nM, 10 min
  activation of ERK1/2 (cell signaling control): also activated ERK1/2

## RRRVKFNKPFVFLMIEQNTKRRR (RRRVKFNKPFVFLMIEQNTKRRR) [SP21]
NFκB [1]
  NFκB activity (NFκB inducible SEAP in supernatant): NFkB inhibition increased as well relative to SP16

## R R R V K F N K P F V F L M R R R (RRRVKFNKPFVFLMRRR) [SP22]
NFκB [1]
  NFκB activity (NFκB inducible SEAP in supernatant): the NFκB activity was significantly reduced

## R R R V R F N R P F L R R R (RRRVRFNRPFLRRR) [SP32]
NFκB [1]
  NFκB activity (NFκB inducible SEAP in supernatant): could not be restored with the poly arginine flanks

## Receptor associated protein expressed as a glutathione-S-transferase fusion protein (GST-RAP)
[2]
  block of SP163M-induced phospho-Akt and phospho-ERK1/2 in PC12 cells (immunoblot); concentration of RAP used: 150 nM

## SIPPEVKFNKPFVFLMIEQNTKSPLFMGKVVNP (SIPPEVKFNKPFVFLMIEQNTKSPLFMGKVVNP; SP16 peptide core sequence including the LRP1 binding site; listed as Homo sapiens) [SP8, reference compound]
NFκB [3]
  NFkB induction by the peptide alone: showed NFkB inducible properties without the need for LPS
NFκB [1]
  NFκB activity (NFκB inducible SEAP in supernatant): neither the scrambled core control peptide nor the AAT 0-36 fragment decreased the NFκB activity

## V K F N K P F V F L M (VKFNKPFVFLM) [SP20]
NFκB [1]
  NFκB activity (NFκB inducible SEAP in supernatant): did not have an inhibitory effect

## V K F N K P F V F L M I E Q N T K (VKFNKPFVFLMIEQNTK; SP16 peptide core sequence including the LRP1 binding site; listed as Homo sapiens)
Mice [4]; topical solution (1%) in 70% ethanol, 14-day period, vs vehicle
  disease improvement (dermatitis score, ear volume): a significant improvement in disease vs. vehicle-treated mice
Mice [4]; topical, vs vehicle (MC903) treated mice
  pruritis (number of scratches): significantly reduces pruritis compared to vehicle (MC903) treated mice
Mice [5]
  eosinophil infiltration into the lungs (BALF): significantly (p=0.04) reduces eosinophil infiltration into the lungs
CCL24
  CCL24 in BALF: significantly reduces CCL24 following OVA-challenge in sensitized mice
CCL26; EPC2 cells stimulated with IL-13
  CCL26 release: significantly reduced CCL26 release dose dependently
CCL26; SPINK7 knockout esophageal cells
  Poly I:C mediated CCL26 release: effective in significantly reducing Poly I:C mediated TSLP and CCL26 release
TSLP [6]
  Poly I:C mediated TSLP release: effective in significantly reducing Poly I:C mediated TSLP and CCL26 release
TSLP [7]
  systemic (serum) and local (ear) TSLP: a significant reduction in systemic (serum) and local (ear) TSLP compared to MC903 treated mice
PAR2
  PAR2 protein expression in ears: PAR2 and TSLP inhibition
IL-4
  IL-4 release in the skin tissue: significantly reduced in SP16-treated animals
IL-2
  IL-2 in BALF: significantly reduces IL-2 following OVA-challenge in sensitized mice
NFκB [1]
  NFκB activity (NFκB inducible SEAP in supernatant): capable of reducing NFκB activity
IL-1a
  IL-1a in BALF: significantly reduces IL-1a following OVA-challenge in sensitized mice
LRP1; 240 nM, 0-30 min
  activation of ERK1/2 over time: robustly activated ERK1/2 from 5 to 30 min
LRP1; 10 min
  lowest concentration activating phospho-ERK1/2: 24 nM
LRP1; 48 h after transfection
  activation of ERK1/2 in cells transfected with NTC siRNA: ERK1/2 was robustly activated

## V R F N R P F L (VRFNRPFL) [SP31]
NFκB [1]
  NFκB activity (NFκB inducible SEAP in supernatant): the anti-inflammatory activity of the peptide was lost
